Like-named read-outs stand apart in the source and are kept apart here.
Experiments:
[1] = tested on: mouse 4T1 breast cancer cells
Procedure: Cells were incubated with varying concentrations for 48 hours, followed by CCK8 reagent. The absorbance at 450 nm was recorded.
Biocompatibility of the peptidic oligomers was characterized in a toxicity assay of the empty beta and gamma chains performed with mouse 4T1 breast cancer cells (FIG. 4). […] Cells were incubated with varying concentrations for 48 hours, followed by CCK8 reagent. The absorbance at 450 nm was recorded.

vacuolar ATPase = experiment: Bafilomycin A1 block of FITC-labeled CPP translocation, flow cytometry; format: cell-based
Excerpt: FIG. 15: Bafilomycin Al blocks CPP translocation. (A) FITC-labeled B6 and G6 are easily detected by flow cytometry.
Vacuolar ATPase aids in the transport to the interior of acidic organelles and BafA1 efficiently neutralizes the luminal pH, inhibits acidic hydrolases, and impairs the fusion among acidic organelles.

4T1 breast cancer cells = experiment: In vitro cell viability assay, CellTiter-Glo, 72 hours; format: cell-based, mouse; conditions: 4T1 cells
Procedure: The assay was run for 72 hours with the CellTiter-Glo assay to determine cell viability.

`CC(C)(C)OC(=O)N[C@@H](CNC(=O)[C@H](CNC(=O)[C@H](CNC(=O)[C@H](CNC(=O)[C@H](CNC(=O)[C@H](CN)NC(=O)OC(C)(C)C)NC(=O)OC(C)(C)C)NC(=O)OC(C)(C)C)NC(=O)OC(C)(C)C)NC(=O)OC(C)(C)C)C(=O)O` [B6] was tested, and the “cellular toxicity (number of viable cells)” value [1] was “do not display cellular toxicity”.

`CO/C1=C\C(C)=C\[C@@H](C)[C@@H](O)[C@@H](C)C/C(C)=C/C=C/[C@H](OC)[C@@H]([C@@H](C)[C@@H](O)[C@H](C)[C@@]2(O)C[C@@H](O)[C@H](C)[C@@H](C(C)C)O2)OC1=O` [Bafilomycin A1] was tested, and the “effect on FITC-labeled CPP binding and translocation (FITC signal)” value (vacuolar ATPase) was “blocked FITC-labeled CPP” and the “effect on FITC-labeled CPP binding and translocation (FITC signal)” value (vacuolar ATPase; listed as BafA1) was “blocks B6-FITC binding and translocation”.

With `CC(C)(C)OC(=O)N[C@@H](CCNC(=O)[C@H](CCNC(=O)[C@H](CCNC(=O)[C@H](CCNC(=O)[C@H](CCNC(=O)[C@H](CCN)NC(=O)OC(C)(C)C)NC(=O)OC(C)(C)C)NC(=O)OC(C)(C)C)NC(=O)OC(C)(C)C)NC(=O)OC(C)(C)C)C(=O)O` [G6] the “cellular toxicity (number of viable cells)” value [1] was “do not display cellular toxicity”.

With `C[S+]([O-])CCCCN=C=S` (centres unmarked) [sulforaphane, D, L sulforaphane] the “concentration showing significant activity” value (4T1 breast cancer cells) was 10 mM.

— patent publication US20230310330A1, “PEPTIDIC OLIGOMERS AND METHODS OF USING THE SAME” (BIOVENTURES, LLC, priority 2022, published 2023)
